The results in this text go back to US20230091225A1, “Bifunctional chimeric heterocyclic compounds for targeted degradation of androgen receptors and use thereof” (HINOVA PHARMACEUTICALS INC., priority 2019, published 2023).

In general, DC50 refers to the midpoint of the concentration-degradation curve. Usually Dmax stands for the largest share of the target that was removed.

Each structure is given as a SMILES string. Like-named read-outs stand apart in the source and are kept apart here.

The target in this assay is T1, androgen receptor (AR) (Homo sapiens, UniProt P10275).
T1 sequence (P10275 1-920): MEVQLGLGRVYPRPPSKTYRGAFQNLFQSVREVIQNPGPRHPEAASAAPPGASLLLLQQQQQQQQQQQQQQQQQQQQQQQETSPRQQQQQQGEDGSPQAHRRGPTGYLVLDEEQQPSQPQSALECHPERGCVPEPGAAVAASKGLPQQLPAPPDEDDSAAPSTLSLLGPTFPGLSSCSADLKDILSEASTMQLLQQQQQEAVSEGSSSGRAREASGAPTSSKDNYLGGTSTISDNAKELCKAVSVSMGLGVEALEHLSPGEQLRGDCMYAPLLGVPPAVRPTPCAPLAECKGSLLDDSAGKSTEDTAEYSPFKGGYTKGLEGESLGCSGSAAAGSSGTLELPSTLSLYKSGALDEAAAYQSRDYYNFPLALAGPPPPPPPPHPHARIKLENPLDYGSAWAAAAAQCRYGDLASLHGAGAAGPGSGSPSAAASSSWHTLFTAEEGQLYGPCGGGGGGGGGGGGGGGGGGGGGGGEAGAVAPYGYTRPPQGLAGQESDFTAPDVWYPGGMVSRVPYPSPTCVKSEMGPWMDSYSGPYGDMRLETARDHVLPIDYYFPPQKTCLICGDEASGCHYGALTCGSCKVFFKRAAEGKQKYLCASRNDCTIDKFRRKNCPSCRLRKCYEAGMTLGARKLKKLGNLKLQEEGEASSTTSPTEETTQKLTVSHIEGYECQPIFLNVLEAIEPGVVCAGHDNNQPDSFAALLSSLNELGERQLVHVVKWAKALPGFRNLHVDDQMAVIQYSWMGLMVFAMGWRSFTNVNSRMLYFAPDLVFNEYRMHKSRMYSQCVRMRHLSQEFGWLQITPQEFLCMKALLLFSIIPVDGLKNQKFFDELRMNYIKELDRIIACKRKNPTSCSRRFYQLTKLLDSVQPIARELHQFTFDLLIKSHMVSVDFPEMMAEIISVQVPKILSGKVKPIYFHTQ
The experiment in a line: Degradation of androgen receptor (AR) protein in VCaP cells by ELISA. Format: cell-based. The settings on record: for Dmax: VCaP. A general note: ELISA stands for enzyme-linked immunosorbent assay.

Setting [1] is: AR degradation, VCaP cells, 16 h, ELISA, Table 3-1, read-out: DC50.
[2] abbreviates: AR degradation, VCaP cells, 16 h, ELISA, Table 3-1, read-out: Dmax (%).

With `N#Cc1ccc(O[C@H]2CC[C@H](NC(=O)c3cnc(N4CCC(N5CC6(CCN(c7cc8c(cc7F)C(=O)N(C7CCC(=O)NC7=O)C8=O)CC6)C5)CC4)cn3)CC2)cc1C(F)(F)F` (some centres unmarked) [Compound 236, N-((1r,4r)-4-(4-cyano-3-(trifluoromethyl)phenoxy)cyclohexyl)-5-(4-(7-(2-(2,6-dioxopiperidin-3-yl)-6-fluoro-1,3-dioxoisoindolin-5-yl)-2,7-diazaspiro[3.5]nonan-2-yl)piperidin-1-yl)pyrazine-2-carboxamide], the DC50 under setting [1] is below 10 nM. Further, under setting [2], the Dmax was above 80%.

For `N#Cc1ccc(O[C@H]2CC[C@H](NC(=O)c3ccc(N4CC5CC4CN5C[C@H]4[C@@H]5CN(c6cc7c(cc6F)C(=O)N(C6CCC(=O)NC6=O)C7=O)C[C@@H]54)nn3)CC2)cc1Cl` (some centres unmarked) [Compound 237], under setting [1], the DC50 was 100 to 300 nM. Further, the Dmax under setting [2] fell in the range of 40 to 60%.

For `N#Cc1ccc(O[C@H]2CC[C@H](NC(=O)c3cnc(N4CC5CC4CN5C[C@H]4[C@@H]5CN(c6cc7c(cc6F)C(=O)N(C6CCC(=O)NC6=O)C7=O)C[C@@H]54)cn3)CC2)cc1Cl` (some centres unmarked) [Compound 238], the DC50 under setting [1] is 10 to 100 nM. The Dmax under setting [2] lay in the range of 40 to 60%.

For `N#Cc1ccc(O[C@H]2CC[C@H](NC(=O)c3ccc(N4C[C@H]5CC[C@@H](C4)N5C[C@H]4[C@@H]5CN(c6cc7c(cc6F)C(=O)N(C6CCC(=O)NC6=O)C7=O)C[C@@H]54)nn3)CC2)cc1Cl` (some centres unmarked) [Compound 239], the DC50 lay in the range of 10 to 100 nM and the Dmax was 60 to 80%.

For `N#Cc1ccc(OC2CCC(NC(=O)c3cnc(N4C[C@H]5CC[C@@H](C4)N5C[C@H]4[C@@H]5CN(c6cc7c(cc6F)C(=O)N(C6CCC(=O)NC6=O)C7=O)C[C@@H]54)cn3)CC2)cc1Cl` (some centres unmarked) [Compound 240], the DC50 fell in the range of 10 to 100 nM and the Dmax lay in the range of 60 to 80%.

The compound `N#Cc1ccc(O[C@H]2CC[C@H](NC(=O)c3cnc(N4CCC(CN5CCC6(CC5)CN(c5ccc7c(c5)C(=O)N(C5CCC(=O)NC5=O)C7=O)C6)CC4)cn3)CC2)cc1Cl` (some centres unmarked) [Compound 241, N-((1r,4r)-4-(3-chloro-4-cyanophenoxy)cyclohexyl)-6-(4-((2-(2-(2-,2,6-dioxopiperidin-3-yl)-1,3-dioxoisoindolin-5-yl)-2,7-diazaspiro[3.5]nonan-7-yl)methyl)piperidin-1-yl)pyrazine-3-carboxamide] returned a DC50 below 10 nM and a Dmax above 80%.

With `N#Cc1ccc(O[C@H]2CC[C@H](NC(=O)c3cnc(N4CC5(CCN(C6CCN(c7cc8c(cc7F)C(=O)N(C7CCC(=O)NC7=O)C8=O)CC6)CC5)C4)cn3)CC2)cc1Cl` (some centres unmarked) [Compound 242, N-((1r,4r)-4-(3-chloro-4-cyanophenoxy)cyclohexyl)-5-(7-(1-(2-(2,6-dioxopiperidin-3-yl)-6-fluoro-1,3-dioxoisoindolin-5-yl)piperidine-4-yl)-2,7-diazaspiro[3.5]nonan-2-yl)pyrazine-2-carboxamide], the DC50 under setting [1] is below 10 nM. Also, the Dmax under setting [2] is above 80%.

`N#Cc1ccc(O[C@H]2CC[C@H](NC(=O)c3nnc(N4CCC(CN5CCC6(CC5)CN(c5ccc7c(c5)C(=O)N(C5CCC(=O)NC5=O)C7=O)C6)CC4)s3)CC2)cc1Cl` (some centres unmarked) [Compound 243] displayed a DC50 below 10 nM and a Dmax above 80%.

On to `N#Cc1ccc(O[C@H]2CC[C@H](NC(=O)c3nnc(N4CCC(CN5CCC6(CC5)CN(c5cc7c(cc5F)C(=O)N(C5CCC(=O)NC5=O)C7=O)C6)CC4)s3)CC2)cc1Cl` (some centres unmarked) [Compound 244], for which the Dmax was above 80%. In addition, the DC50 under setting [1] is below 10 nM.

Compound `N#Cc1ccc(O[C@H]2CC[C@H](NC(=O)c3cnn([C@H]4CC[C@H](CN5CCC6(CC5)CN(c5ccc7c(c5)C(=O)N(C5CCC(=O)NC5=O)C7=O)C6)CC4)c3)CC2)cc1Cl` (some centres unmarked) [Compound 245] displayed a Dmax of 60 to 80%. Besides, under setting [1], the DC50 is 10 to 100 nM.

In turn, `N#Cc1ccc(O[C@H]2CC[C@H](NC(=O)c3cnn([C@H]4CC[C@H](CN5CCC6(CC5)CN(c5cc7c(cc5F)C(=O)N(C5CCC(=O)NC5=O)C7=O)C6)CC4)c3)CC2)cc1Cl` (some centres unmarked) [Compound 246] registered a Dmax of 60 to 80%. The DC50 under setting [1] lay in the range of 10 to 100 nM.

For `N#Cc1ccc(O[C@H]2CC[C@H](NC(=O)c3ccc(N4CCC(CN5CCC6(CC5)CN(c5ccc7c(=O)n(C8CCC(=O)NC8=O)cnc7c5)C6)CC4)nn3)CC2)cc1Cl` (some centres unmarked) [Compound 247], the DC50 under setting [1] is below 10 nM. The Dmax under setting [2] is above 80%.

Turning to `N#Cc1ccc(O[C@H]2CC[C@H](NC(=O)c3ccc(N4CCC5(CCN(CC6CCN(c7cc8c(cc7F)C(=O)N(C7CCC(=O)NC7=O)C8=O)CC6)CC5)CC4)nn3)CC2)cc1Cl` (some centres unmarked) [Compound 261], the DC50 under setting [1] is below 10 nM. For the same compound, the Dmax under setting [2] is above 80%.

Turning to `N#Cc1ccc(O[C@H]2CC[C@H](NC(=O)c3ccc(N4CCC5(CCN(CC6CCN(c7ccc8c(c7)C(=O)N(C7CCC(=O)NC7=O)C8=O)CC6)CC5)CC4)nn3)CC2)cc1Cl` (some centres unmarked) [Compound 262, N-((1r,4r)-4-(3-chloro-4-cyanophenoxy)cyclohexyl)-6-(9-((1-(2-(2,6-dioxopiperidin-3-yl)-1,3-dioxoisoindolin-5-yl)piperidine-4-yl)methyl)-3,9-diazaspiro[5.5]undecan-3-yl)pyridazine-3-formamide], the DC50 under setting [1] was below 10 nM. Moreover, the Dmax under setting [2] was above 80%.

Turning to `C[C@@H]1CN(C[C@@H]2[C@H]3CN(c4cc5c(cc4F)C(=O)N(C4CCC(=O)NC4=O)C5=O)C[C@@H]23)CCN1c1ccc(C(=O)N[C@H]2CC[C@H](Oc3ccc(C#N)c(Cl)c3)CC2)nn1` (some centres unmarked) [Compound 263], under setting [1], the DC50 was below 10 nM. In addition, the Dmax under setting [2] lay within 60 to 80%.

`C[C@@H]1CN(C[C@@H]2[C@H]3CN(c4cc5c(cc4F)C(=O)N(C4CCC(=O)NC4=O)C5=O)C[C@@H]23)CCN1c1cnc(C(=O)N[C@H]2CC[C@H](Oc3ccc(C#N)c(Cl)c3)CC2)cn1` (stereo partly drawn) [Compound 264, N-((1r,4R)-4-(3-chloro-4-cyanophenoxy)cyclohexyl)-5-((2R)-4-((1R,5S,6s)-3-(2-(2,6-dioxopiperidin-3-yl)-6-fluoro-1,3-dioxoisoindolin-5-yl)-3-azabicyclo[3.1.0]n-hexane-6-yl)methyl-2-methylpiperazin-1-yl)pyrazine-2-carboxamide]: the DC50 under setting [1] lay within 10 to 100 nM. Moreover, the Dmax under setting [2] was in the range of 60 to 80%.

`C[C@@H]1CN(c2ccc(C(=O)N[C@H]3CC[C@H](Oc4ccc(C#N)c(Cl)c4)CC3)nn2)CCN1C[C@H]1[C@@H]2CN(c3cc4c(cc3F)C(=O)N(C3CCC(=O)NC3=O)C4=O)C[C@@H]21` (some centres unmarked) [Compound 265]: the DC50 under setting [1] is 10 to 100 nM. Also, the Dmax under setting [2] lay in the range of 60 to 80%.

Take `C[C@@H]1CN(c2cnc(C(=O)N[C@H]3CC[C@H](Oc4ccc(C#N)c(Cl)c4)CC3)cn2)CCN1C[C@H]1[C@@H]2CN(c3cc4c(cc3F)C(=O)N(C3CCC(=O)NC3=O)C4=O)C[C@@H]21` (stereo partly drawn) [Compound 266, N-((1r,4R)-4-(3-chloro-4-cyanophenoxy)cyclohexyl)-5-((3R)-4-((1R,5S,6s)-3-(2-(2,6-dioxopiperidin-3-yl)-6-fluoro-1,3-dioxoisoindolin-5-yl)-3-azabicyclo[3.1.0]n-hexane-6-yl)methyl-3-methylpiperazin-1-yl)pyrazine-2-carboxamide]: the DC50 under setting [1] was 10 to 100 nM. Also, under setting [2], the Dmax is above 80%.

Take `N#Cc1ccc(O[C@H]2CC[C@H](NC(=O)c3cnc(N4CCC(CN5CCC6(CC5)CN(c5ccc7c(c5)C(=O)N(C5CCC(=O)NC5=O)C7=O)C6)CC4)nc3)CC2)cc1Cl` (some centres unmarked) [Compound 267]: under setting [1], the DC50 is below 10 nM. The Dmax under setting [2] is above 80%.
